Laboratory results: ChEMBL document CHEMBL1201862, “PubChem BioAssay data set” (2004)
“And” between values parts separate entries of the source, which are not always exact repeats. Equal entries are not always repeated.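 Five compound concentrations were applied to cells in 96-well plates for 48 hours; endpoints were derived by simple linear interpolation of the resulting dose-response curve. The concentration for 50% growth inhibition is given as GI50.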 The source made the active and inactive calls. Rule as the data show it: active = GI50 up to about 1.1 µM and inactive = higher.

Legend:
Test in all cases: inhibition of tumour cell growth, NCI panel, 48 h
[1] = system: SK-MEL-2
[2] = system: SNB-75
[3] = system: HL-60
[4] = system: CCRF-CEM
[5] = system: A498
[6] = system: OVCAR-3
[7] = system: UACC-62
[8] = system: HOP-92
[9] = system: U-251
[10] = system: SR
[11] = system: SNB-19
[12] = system: IGROV-1
[13] = system: OVCAR-5
[14] = system: COLO 205
[15] = system: M14
[16] = system: MCF7
[17] = system: UACC-257
[18] = system: SW-620
[19] = system: SF-268
[20] = system: TK-10
[21] = system: HCT-15
[22] = system: SK-OV-3
[23] = system: ACHN
[24] = system: SF-539
[25] = system: DU-145
[26] = system: NCI/ADR-RES
[27] = system: T47D
[28] = system: K562
[29] = system: SN12C
[30] = system: PC-3
[31] = system: Malme-3M
[32] = system: NCI-H23
[33] = system: MDA-N
[34] = system: A549
[35] = system: NCI-H460
[36] = system: KM12
[37] = system: Hs-578T
[38] = system: MDA-MB-435
[39] = system: SK-MEL-5
[40] = system: HCT-116
[41] = system: MOLT-4
[42] = system: HOP-62
[43] = system: OVCAR-8
[44] = system: CAKI-1
[45] = system: SF-295
[46] = system: HT-29
[47] = system: HCC 2998
[48] = system: MDA-MB-231
[49] = system: UO-31
[50] = system: OVCAR-4
[51] = system: RPMI-8226
[52] = system: EKVX
[53] = system: 786-0
[54] = system: SK-MEL-28
[55] = system: NCI-H226
[56] = system: NCI-H522
[57] = system: RXF 393
[58] = system: LOX IMVI

SMILES: CC[C@@]1(O)C[C@H](OC2CC(N(C)C)C(OC3CC(O)C(OC4CCC(=O)C(C)O4)C(C)O3)C(C)O2)c2c(cc3c(c2O)C(=O)c2c(O)ccc(O)c2C3=O)[C@H]1C(=O)OC (some centres not stated)
- GI50 [1]: < 0.01 µM (active)
- GI50 [2]: 0.0181 µM (active)
- GI50 [3]: < 0.1 nM (active)
- GI50 [4]: < 0.1 nM (active)
- GI50 [5]: < 10 nM (active)
- GI50 [6]: < 10 nM (active)
- GI50 [7]: < 10 nM (active)
- GI50 [8]: < 10 nM (active)
- GI50 [9]: < 0.01 µM (active)
- GI50 [10]: < 0.01 µM (active)
- GI50 [11]: < 0.0001 µM (active)
- GI50 [12]: < 0.0001 µM (active)
- GI50 [13]: 0.01 µM (active)
- GI50 [14]: < 0.0001 µM (active)
- GI50 [15]: < 0.01 µM (active)
- GI50 [16]: < 0.1 nM (active)
- GI50 [17]: 0.0153 µM (active)

SMILES: CN1C2C=CC(=O)C1C(C#N)C2 (configuration not stated)
- GI50 [18]: 28.7 µM (inactive) and 51.8 µM (inactive)
- GI50 [3]: 32.2 µM (inactive) and 18.6 µM (inactive)
- GI50 [19]: 95.9 µM (inactive) and 75.5 µM (inactive)
- GI50 [20]: > 100 µM (inactive) and 66.4 µM (inactive)
- GI50 [21]: 30.5 µM and 24.1 µM
- GI50 [4]: 23.2 µM (inactive) and 19 µM (inactive)
- GI50 [22]: > 100 µM (inactive) and 83.8 µM (inactive)
- GI50 [5]: 49.5 µM (inactive) and 46.1 µM (inactive)
- GI50 [23]: 72.3 µM (inactive) and 52.5 µM (inactive)
- GI50 [24]: 28.4 µM (inactive) and 36.3 µM (inactive)
- GI50 [6]: 62.1 µM (inactive) and 35.4 µM (inactive)
- GI50 [25]: 68.7 µM (inactive) and 40 µM (inactive)
- GI50 [26]: 30.5 µM (inactive) and 28.2 µM (inactive)
- GI50 [27]: 21.1 µM (inactive) and 39.2 µM (inactive)
- GI50 [28]: 36.1 µM (inactive) and 19.3 µM (inactive)
- GI50 [29]: 59.7 µM (inactive) and 35.8 µM (inactive)
- GI50 [7]: 80.4 µM (inactive) and 76.4 µM (inactive)
- GI50 [30]: > 100 µM (inactive)
- GI50 [31]: 24 µM (inactive) and 40 µM (inactive)
- GI50 [8]: 9.82 µM (inactive) and 16.4 µM (inactive)
- GI50 [32]: 32.4 µM (inactive) and 22.3 µM (inactive)
- GI50 [33]: 29.1 µM (inactive) and 41.3 µM (inactive)
- GI50 [34]: 66.4 µM (inactive) and 34.5 µM (inactive)
- GI50 [35]: 37.2 µM (inactive) and 31.7 µM (inactive)
- GI50 [36]: 42.9 µM (inactive) and 38.5 µM (inactive)
- GI50 [11]: 77.8 µM (inactive)
- GI50 [37]: > 100 µM (inactive) and 85.3 µM (inactive)
- GI50 [38]: 29.5 µM (inactive) and 42.9 µM (inactive)
- GI50 [39]: 55.1 µM (inactive)
- GI50 [12]: 56 µM (inactive)
- GI50 [16]: 31.8 µM (inactive) and 35.8 µM (inactive)
- GI50 [40]: 33.5 µM (inactive) and 18.9 µM (inactive)
- GI50 [41]: 30.1 µM (inactive) and 29.5 µM (inactive)
- GI50 [42]: 94.4 µM (inactive)

SMILES: N#Cc1c(N2CCCC2)nsc1Nc1ccc(F)cc1
- GI50 [1]: > 100 µM (inactive)
- GI50 [18]: > 100 µM (inactive)
- GI50 [43]: 78 µM (inactive)
- GI50 [3]: > 100000 nM (inactive)
- GI50 [44]: 97.1 µM (inactive)
- GI50 [45]: > 100 µM (inactive)
- GI50 [19]: > 100 µM (inactive)
- GI50 [20]: > 100 µM (inactive)
- GI50 [21]: > 100 µM
- GI50 [4]: > 100000 nM (inactive)
- GI50 [22]: 61.2 µM (inactive)
- GI50 [46]: > 100 µM (inactive)
- GI50 [5]: > 100000 nM (inactive)
- GI50 [23]: > 100 µM (inactive)
- GI50 [24]: > 100 µM (inactive)
- GI50 [47]: > 100 µM (inactive)
- GI50 [6]: > 100000 nM (inactive)
- GI50 [25]: > 100 µM (inactive)
- GI50 [26]: > 100 µM (inactive)
- GI50 [48]: > 100 µM (inactive)
- GI50 [27]: > 100 µM (inactive)
- GI50 [28]: > 100 µM (inactive)
- GI50 [29]: > 100 µM (inactive)
- GI50 [7]: > 100000 nM (inactive)
- GI50 [49]: > 10 µM (inactive)
- GI50 [30]: > 100 µM (inactive)
- GI50 [50]: > 100 µM (inactive)
- GI50 [31]: > 100 µM (inactive)
- GI50 [8]: > 100000 nM (inactive)
- GI50 [51]: > 100 µM (inactive)
- GI50 [32]: > 100 µM (inactive)
- GI50 [9]: > 100 µM (inactive)
- GI50 [33]: > 100 µM (inactive)
- GI50 [52]: 19.7 µM (inactive)
- GI50 [53]: > 100 µM (inactive)
- GI50 [34]: > 100 µM (inactive)
- GI50 [35]: > 100 µM (inactive)
- GI50 [10]: > 100 µM (inactive)
- GI50 [36]: > 100 µM (inactive)
- GI50 [11]: > 100 µM (inactive)
- GI50 [37]: > 100 µM (inactive)
- GI50 [38]: > 100 µM (inactive)
- GI50 [39]: > 100 µM (inactive)
- GI50 [54]: > 100 µM (inactive)
- GI50 [12]: > 100 µM (inactive)
- GI50 [55]: > 100 µM (inactive)
- GI50 [13]: > 100 µM (inactive)
- GI50 [14]: > 100 µM (inactive)
- GI50 [15]: > 100 µM (inactive)
- GI50 [40]: > 100 µM (inactive)
- GI50 [56]: 57.9 µM (inactive)
- GI50 [17]: > 100 µM (inactive)
- GI50 [41]: > 100 µM (inactive)
- GI50 [57]: > 100 µM (inactive)
- GI50 [42]: > 100 µM (inactive)
- GI50 [58]: > 100 µM (inactive)
